Measured values from US10364247B2, “Preparation and use of novel protein kinase inhibitors” (Ruijin Hospital Affiliated to Shanghai Jiao Tong University …, priority 2015, dated 2019).

Experiments:
Format in all cases: cell-based, murine
[1] = molecular target: T1, BaF3-TEL-LYN (Homo sapiens, UniProt P07948); assay: Antiproliferative activity, kinase-dependent Ba/F3 cells (MTT/MTS); conditions: 48 hours, cell viability, read-out: tel-LYN IC50
T1 construct: fused on or other part: P41212 (Transcription factor ETV6)
Protocol: (§1) Following up on the kinome data, the ability of compounds disclosed in the present invention to inhibit proliferation of cells that are dependent on selected protein kinases was tested. […] In addition, compounds were assayed to measure their capacity to inhibit TIE1, LYN, EML4-ALK, INSR and HCK kinases.
(§2) The murine cell line used is the BaF/3 cell line transformed with BCR/ABL cDNA (BaF/3-p210) or BCR/ABL-T315I mutant (Ba/F3-p210-T315I). These cells are maintained in RPMI/10% fetal calf serum (RPMI/FCS) supplemented with penicillin 50 μg/mL, streptomycin 50 μg/mL and L-glutamine […]. Untransformed BaF/3 cells (Wt-BaF/3) are similarly maintained with the addition of 15% of WEHI conditioned medium as a source of IL3.
(§3) Cells were seeded at a density of 20,000 cells/well into 96-well plates.
(§4) The background control wells to which media with no cells added and the vehicle control wells were included on each plate in triplicate. Cell viability was determined using MTT (Sigma, St. Louis, Mo., USA) and MTS (Promega, Madison, Wis., USA), according to the manufacturer's instructions. Results were analyzed using GraphPad Prism 5.0 (GraphPad Software, San Diego, Calif.) and IC50 values were calculated from cell viability dose-response curves and defined as the concentration of compound needed to reduce cell viability to 50% of a vehicle control (DMSO) (Table 3).
(§5) Cell proliferation assays of compounds of the invention against TIE1, LYN, EML4-ALK, INSR and Hck were conducted using identical methods as described above for BCR/ABL, except that BaF3-TEL-TIE1, BaF3-TEL-LYN, BaF3-EML4-ALK, BaF3-TEL-INSR, and BaF3-TEL-HCK are used instead of BaF3-BCR/ABL (Table 3 and 4).

[2] = molecular target: T2, BaF3-TEL-TIE1 (Homo sapiens, UniProt P35590); assay: as above; conditions: 48 hours, cell viability, read-out: tel-TIE1 IC50
T2 construct: fused on or other part: P41212 (Transcription factor ETV6)
T2 sequence (P35590 whole entry, change not shown, the tested form may be a part): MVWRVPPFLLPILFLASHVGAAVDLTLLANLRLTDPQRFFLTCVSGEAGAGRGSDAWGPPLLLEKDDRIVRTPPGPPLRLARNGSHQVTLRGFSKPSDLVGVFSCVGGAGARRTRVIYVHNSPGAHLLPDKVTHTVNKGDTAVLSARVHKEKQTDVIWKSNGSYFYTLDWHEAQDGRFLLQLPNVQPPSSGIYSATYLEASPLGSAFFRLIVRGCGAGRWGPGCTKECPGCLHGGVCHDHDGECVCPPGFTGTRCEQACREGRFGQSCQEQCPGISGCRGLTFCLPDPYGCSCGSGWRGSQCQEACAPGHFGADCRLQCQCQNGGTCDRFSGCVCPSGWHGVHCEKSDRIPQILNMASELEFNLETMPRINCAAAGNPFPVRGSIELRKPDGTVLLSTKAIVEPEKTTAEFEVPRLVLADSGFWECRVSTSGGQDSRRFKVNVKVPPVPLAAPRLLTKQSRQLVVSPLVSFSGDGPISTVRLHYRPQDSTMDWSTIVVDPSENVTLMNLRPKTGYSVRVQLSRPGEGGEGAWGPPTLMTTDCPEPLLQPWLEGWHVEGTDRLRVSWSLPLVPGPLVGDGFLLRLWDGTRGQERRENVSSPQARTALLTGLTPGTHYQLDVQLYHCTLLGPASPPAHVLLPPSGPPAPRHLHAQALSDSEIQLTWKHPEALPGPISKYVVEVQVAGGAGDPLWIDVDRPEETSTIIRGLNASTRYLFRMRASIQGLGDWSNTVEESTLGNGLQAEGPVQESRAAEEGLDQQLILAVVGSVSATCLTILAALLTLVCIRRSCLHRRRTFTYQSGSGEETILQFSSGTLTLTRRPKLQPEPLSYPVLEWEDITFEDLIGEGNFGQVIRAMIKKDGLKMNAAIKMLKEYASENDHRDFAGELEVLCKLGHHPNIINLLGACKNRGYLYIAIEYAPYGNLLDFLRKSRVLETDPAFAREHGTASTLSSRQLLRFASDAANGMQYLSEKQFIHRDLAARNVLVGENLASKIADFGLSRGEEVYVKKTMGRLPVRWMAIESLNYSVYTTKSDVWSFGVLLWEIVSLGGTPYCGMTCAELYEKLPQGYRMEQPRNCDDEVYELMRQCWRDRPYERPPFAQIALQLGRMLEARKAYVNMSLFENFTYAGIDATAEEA
Protocol: as §1, §2, §3, §4, §5

[3] = molecular target: T3, BaF3-EML4-ALK (Homo sapiens, UniProt Q9UM73); assay: as above; conditions: 48 hours, cell viability, read-out: EML4-ALK IC50
T3 construct: fused on or other part: Q9HC35 (Echinoderm microtubule-associated protein-like 4)
T3 sequence (Q9UM73 whole entry, change not shown, the tested form may be a part): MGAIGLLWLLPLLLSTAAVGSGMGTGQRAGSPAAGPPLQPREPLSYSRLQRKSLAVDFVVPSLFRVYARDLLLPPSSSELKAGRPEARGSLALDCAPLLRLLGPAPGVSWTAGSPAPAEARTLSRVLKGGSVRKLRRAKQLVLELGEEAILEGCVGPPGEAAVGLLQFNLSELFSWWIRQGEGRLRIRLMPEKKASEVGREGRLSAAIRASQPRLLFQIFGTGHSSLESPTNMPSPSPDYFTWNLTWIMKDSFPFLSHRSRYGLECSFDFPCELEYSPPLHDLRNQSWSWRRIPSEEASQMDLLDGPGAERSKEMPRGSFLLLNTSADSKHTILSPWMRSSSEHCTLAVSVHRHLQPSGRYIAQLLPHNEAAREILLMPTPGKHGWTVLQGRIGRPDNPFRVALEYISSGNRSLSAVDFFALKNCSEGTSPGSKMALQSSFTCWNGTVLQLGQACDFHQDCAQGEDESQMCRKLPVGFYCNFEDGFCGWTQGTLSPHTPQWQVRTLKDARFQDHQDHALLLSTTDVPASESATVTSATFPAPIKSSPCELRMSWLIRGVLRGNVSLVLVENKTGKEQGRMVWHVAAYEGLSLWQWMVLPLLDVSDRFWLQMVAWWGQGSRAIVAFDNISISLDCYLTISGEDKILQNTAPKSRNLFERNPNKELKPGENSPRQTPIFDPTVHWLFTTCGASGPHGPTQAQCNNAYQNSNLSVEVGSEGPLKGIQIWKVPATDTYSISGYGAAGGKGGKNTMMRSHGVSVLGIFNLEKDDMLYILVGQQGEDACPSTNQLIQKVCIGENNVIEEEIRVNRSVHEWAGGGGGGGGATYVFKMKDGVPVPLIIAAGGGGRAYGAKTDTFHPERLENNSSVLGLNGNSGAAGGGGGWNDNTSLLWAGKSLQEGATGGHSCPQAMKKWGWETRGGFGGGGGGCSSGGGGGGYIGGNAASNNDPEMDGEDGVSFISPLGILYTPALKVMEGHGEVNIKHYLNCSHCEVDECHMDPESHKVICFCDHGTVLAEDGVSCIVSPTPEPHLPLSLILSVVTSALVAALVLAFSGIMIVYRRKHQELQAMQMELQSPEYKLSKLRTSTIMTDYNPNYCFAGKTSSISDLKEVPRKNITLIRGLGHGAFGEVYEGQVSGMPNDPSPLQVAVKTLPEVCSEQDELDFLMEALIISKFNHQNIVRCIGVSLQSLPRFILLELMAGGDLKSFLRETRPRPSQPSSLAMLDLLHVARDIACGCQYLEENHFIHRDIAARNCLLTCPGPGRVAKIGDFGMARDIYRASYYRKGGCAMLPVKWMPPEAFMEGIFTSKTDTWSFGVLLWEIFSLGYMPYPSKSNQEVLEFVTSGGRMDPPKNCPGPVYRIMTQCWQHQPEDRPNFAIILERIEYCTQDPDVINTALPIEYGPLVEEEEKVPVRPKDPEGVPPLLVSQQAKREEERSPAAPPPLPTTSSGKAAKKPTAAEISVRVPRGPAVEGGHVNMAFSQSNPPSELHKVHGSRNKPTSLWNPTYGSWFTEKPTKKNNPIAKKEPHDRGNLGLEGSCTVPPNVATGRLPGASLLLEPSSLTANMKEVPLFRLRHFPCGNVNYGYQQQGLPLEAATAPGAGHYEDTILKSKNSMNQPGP
Protocol: as §1, §2, §3, §4, §5

[4] = molecular target: T4, BaF3-TEL-HCK (Homo sapiens, UniProt P08631); assay: as above; conditions: 48 hours, cell viability, read-out: Tel-HCK IC50
T4 construct: fused on or other part: P41212 (Transcription factor ETV6)
T4 sequence (P08631 whole entry, change not shown, the tested form may be a part): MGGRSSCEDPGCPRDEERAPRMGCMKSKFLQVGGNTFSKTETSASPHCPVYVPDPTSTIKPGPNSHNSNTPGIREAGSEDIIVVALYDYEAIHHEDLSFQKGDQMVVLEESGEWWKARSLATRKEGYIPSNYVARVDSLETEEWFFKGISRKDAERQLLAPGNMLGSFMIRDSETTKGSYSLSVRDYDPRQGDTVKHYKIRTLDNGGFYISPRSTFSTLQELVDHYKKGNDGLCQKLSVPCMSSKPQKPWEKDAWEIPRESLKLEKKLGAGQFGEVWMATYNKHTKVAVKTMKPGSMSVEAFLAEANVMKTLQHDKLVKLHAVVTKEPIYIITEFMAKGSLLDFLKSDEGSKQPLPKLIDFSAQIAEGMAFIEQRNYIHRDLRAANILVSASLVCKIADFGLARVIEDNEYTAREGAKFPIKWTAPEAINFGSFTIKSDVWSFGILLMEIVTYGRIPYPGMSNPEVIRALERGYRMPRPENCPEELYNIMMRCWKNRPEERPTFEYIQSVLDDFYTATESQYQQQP
Protocol: as §1, §2, §3, §4, §5

[5] = molecular target: T5, BaF3-TEL-INSR (Homo sapiens, UniProt P06213); assay: as above; conditions: 48 hours, cell viability, read-out: Tel-INSR IC50
T5 construct: fused on or other part: P41212 (Transcription factor ETV6)
T5 sequence (P06213 whole entry, stated change not applied, the tested form may be a part): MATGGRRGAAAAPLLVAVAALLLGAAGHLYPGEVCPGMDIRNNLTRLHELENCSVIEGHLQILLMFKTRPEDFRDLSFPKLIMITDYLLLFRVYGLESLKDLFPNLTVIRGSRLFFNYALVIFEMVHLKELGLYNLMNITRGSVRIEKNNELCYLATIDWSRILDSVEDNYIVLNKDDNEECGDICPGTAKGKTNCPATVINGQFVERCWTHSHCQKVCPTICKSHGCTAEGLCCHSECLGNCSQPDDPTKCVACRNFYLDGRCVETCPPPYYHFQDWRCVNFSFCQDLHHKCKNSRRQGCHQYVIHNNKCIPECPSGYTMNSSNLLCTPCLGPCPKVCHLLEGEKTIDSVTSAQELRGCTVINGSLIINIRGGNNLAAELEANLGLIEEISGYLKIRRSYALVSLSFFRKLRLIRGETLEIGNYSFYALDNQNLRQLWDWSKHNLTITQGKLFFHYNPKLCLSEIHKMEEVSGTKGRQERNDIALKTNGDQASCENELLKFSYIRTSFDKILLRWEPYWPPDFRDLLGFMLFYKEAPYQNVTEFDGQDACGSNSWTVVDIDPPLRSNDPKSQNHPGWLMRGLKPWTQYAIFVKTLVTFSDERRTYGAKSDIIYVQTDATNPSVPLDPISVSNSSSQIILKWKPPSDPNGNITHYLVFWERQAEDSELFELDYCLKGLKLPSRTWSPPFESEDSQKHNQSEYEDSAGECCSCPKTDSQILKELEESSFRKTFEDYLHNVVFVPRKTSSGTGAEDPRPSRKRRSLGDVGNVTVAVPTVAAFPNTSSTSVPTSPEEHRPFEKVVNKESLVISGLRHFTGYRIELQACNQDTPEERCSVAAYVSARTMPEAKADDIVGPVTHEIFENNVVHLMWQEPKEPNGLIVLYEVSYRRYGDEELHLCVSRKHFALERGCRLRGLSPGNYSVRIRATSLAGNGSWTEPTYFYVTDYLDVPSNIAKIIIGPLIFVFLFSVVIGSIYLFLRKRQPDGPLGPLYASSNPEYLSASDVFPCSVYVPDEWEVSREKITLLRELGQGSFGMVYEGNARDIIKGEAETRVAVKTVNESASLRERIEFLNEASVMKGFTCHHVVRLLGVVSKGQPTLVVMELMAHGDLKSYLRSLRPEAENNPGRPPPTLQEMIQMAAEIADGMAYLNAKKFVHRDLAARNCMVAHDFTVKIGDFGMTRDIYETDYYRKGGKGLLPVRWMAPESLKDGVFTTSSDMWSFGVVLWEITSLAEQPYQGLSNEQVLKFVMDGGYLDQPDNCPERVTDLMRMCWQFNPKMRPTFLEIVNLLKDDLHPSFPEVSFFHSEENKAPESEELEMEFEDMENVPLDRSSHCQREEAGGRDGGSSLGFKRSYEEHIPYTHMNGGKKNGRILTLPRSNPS
Protocol: as §1, §2, §3, §4, §5

[6] = molecular target: T6, BaF3-BCR/ABL-T315I (Homo sapiens, UniProt P00519, T315I, cells depend on it); assay: as above; conditions: 48 hours, cell viability, read-out: BCR/ABL T315I IC50
T6 construct: fused on or other part: P11274 (Breakpoint cluster region protein)
Protocol: as §1, §2, §3, §4

[7] = molecular target: T7, BaF3-BCR/ABL (Homo sapiens, UniProt P00519); assay: as above; conditions: 48 hours, cell viability, read-out: BCR/ABL IC50
T7 construct: fused on or other part: P11274 (Breakpoint cluster region protein)
Protocol: as §1, §2, §3, §4

[8] = test system: Wt-BaF3; assay: Parental Ba/F3 cell proliferation (CellTiter Glo); conditions: Mus musculus, parental BaF/3 cells, 48 hours
Protocol: as §2
(§6) The BaF/3 cell line transformed with oncogenic NRAS or KRAS (BaF/3-NRASD12 or BaF/3-KRASD12) and the parental BaF/3 cells were used to measure the abilities of compounds of the invention to suppress RAS transformation (Table 5). Cells were seeded at a density of 5000 cells/well into 96-well plates. […] The background control wells to which media with no cells added and the vehicle control wells were included on each plate in triplicate. Cell viability was determined using CellTiter Glo Assay (Promega) according to manufacture's instruction with a minor modification of diluting 1 part CellTiter Glo reagent to 4 parts phosphate buffered saline (PBS) before use. The luminescence value was read out by an Envision (PerkinElmer).

[9] = test system: BaF3-KRASD12; assay: Oncogenic RAS dependent cell proliferation (CellTiter Glo); conditions: Mus musculus, BaF3-KRASD12 cells, 48 hours, read-out: KRas-BaF3 IC50
Protocol: as §6

[10] = test system: BaF3-NRASD12; assay: as above; conditions: Mus musculus, BaF3-NRASD12 cells, 48 hours, read-out: NRas-BaF3 IC50
Protocol: as §6

| Compound | GI50 [1] | GI50 [2] | GI50 [3] | GI50 [4] | GI50 [5] | GI50 [6] | GI50 [7] | IC50 [8] | IC50 [9] | IC50 [10] |
| --- | --- | --- | --- | --- | --- | --- | --- | --- | --- | --- |
| Cc1ccc(NC(=O)c2cccc(C(F)(F)F)c2)cc1N1Cc2cnc(Nc3ccc(N4CCC(O)CC4)nc3)nc2N(C)C1 [IA-13, N-(3-(7-((6-(4-hydroxypiperidin-1-yl)pyridin-3-yl)amino)-1-methyl-1,4-dihydropyrimido[4,5-d]pyrimidin-3(2H)-yl)-4-methylphenyl)-3-(trifluoromethyl)benzamide] | 132 nM | 289 nM | 1870 nM | 192 nM | 320 nM | 226 nM | 5.85 nM | 2340 nM | 402 nM | 501 nM |
| COc1cc(C(=O)N2CCN(C)CC2)ccc1Nc1ncc2c(n1)N(C)CN(c1cc(NC(=O)c3cccc(C(F)(F)F)c3)ccc1C)C2 [IA-16, N-(3-(7-((2-methoxy-4-(4-methylpiperazine-1-carbonyl)phenyl)amino)-1-methyl-1,4-dihydropyrimido[4,5-d]pyrimidin-3(2H)-yl)-4-methylphenyl)-3-(trifluoromethyl)benzamide] | 2000 nM | 1580 nM | 1540 nM | 2880 nM | 3960 nM | 4370 nM | 1710 nM | 4420 nM | 4310 nM | 4410 nM |
| CCN(CC)c1ccc(Nc2ncc3c(n2)N(C)CN(c2cc(NC(=O)c4cccc(C(F)(F)F)c4)ccc2C)C3)cn1 [IA-12, N-(3-(7-((6-(diethylamino)pyridin-3-yl)amino)-1-methyl-1,4-dihydropyrimido[4,5-d]pyrimidin-3(2H)-yl)-4-methylphenyl)-3-(trifluoromethyl)benzamide] | 1160 nM | 1350 nM | 3190 nM | 3070 nM | 977 nM | 4500 nM | 205 nM | 4110 nM | 1820 nM | 2300 nM |
| CCN1CN(c2cc(NC(=O)c3cccc(C(F)(F)F)c3)ccc2C)Cc2cnc(Nc3ccc(C)nc3)nc21 [IB-1, N-(3-(1-ethyl-7-((6-methylpyridin-3-yl)amino)-1,4-dihydropyrimido[4,5-d]pyrimidin-3(2H)-yl)-4-methylphenyl)-3-(trifluoromethyl)benzamide] | 1260 nM | 1290 nM | 2640 nM | 327 nM | 3230 nM | 881 nM | 5.96 nM | 4840 nM | 2110 nM | 1500 nM |
